Patent publication US20260042831A1, “METHODS OF TREATING SARCOIDOSIS WITH A TNF-A ANTIBODY AND ASSOCIATED COMPOSITIONS AND METHODS” (XENTRIA, INC., priority 2022, published 2026)
Entries after “also recorded” stand apart in the source; their conditions may differ. Where two headings read alike, the source gives them in different places.

What was measured:
[1] = test system: chronic refractory pulmonary sarcoidosis; conditions: low- and high-dose IV infusion, at 24 weeks; cited from earlier work
[2] = test system: normal human tissues and human sarcoidosis tissue; experiment: Tissue cross-reactivity study (GLP, immunohistochemistry on cryosections); type: binding; conditions: for Tissues Showing Evidence of Staining: Sp2/0-Ag14 cells: negative control; for Tissues Showing Evidence of Staining: T3-33 (TNFα-expressing) cells: positive control, 5 and 20 μg/mL
Description: Human tonsil, human lung and lymph node with sarcoidosis, and human small intestine with Crohn's disease were also included in the study.
Samples from 1 to 3 separate donors from each of the listed tissues were evaluated. Fresh, unfixed tissue samples were placed into molds, filled with Tissue-Tek® OCT Compound, and frozen at −85 to −70° C. until sectioning. Sections were cut at approximately 5 μm and fixed in acetone for 10 minutes at room temperature. Human blood smears were stored at −85° to −70° C. until fixation and staining. XTMAB16 (primary antibody) was incubated overnight with biotinylated donkey anti-human IgG secondary labeled antibody. XTMAB16 and the control article, hIgG1, were tested at concentration of 5 and 20 μg/mL. Immunopathology was assessed by light microscopy.
The following human tissues were assessed in this cross-reactivity study: • 1. Positive Control: • Cryosections of T3-33 (TNFα-expressing) cells • 2. Negative Control: • Cryosections of Sp2/0-Ag14 cells • 3. Ancillary Controls: • Cryosections of human tonsil (mononuclear cells; 2 donors) • Cryosections of human small intestine with Crohn's disease (mononuclear cells; 1 donor) • Cryosections of human lung with sarcoidosis (mononuclear cells; 1 donor) • Cryosections of human lymph node with sarcoidosis (mononuclear cells; 1 donor)

[3] = test system: transgenic TC (TgTC) mice (rheumatoid arthritis model); experiment: In vivo primary pharmacology: arthritis scores in TgTC mice; set-up: species or system mouse; conditions: for arthritis scores compared to vehicle control: Day 29 and Day 43 (p<0.01)
[4] = test system: TNFα, IL-1β, IFNγ release; experiment: In vitro granuloma model of sarcoidosis: supernatant cytokine release (ELISA); conditions: 30 minutes pre-treatment, 7 days following PPD
Description: (§1) PMBCs were exposed to either uncoated bead (UNC) or Mycobacterium tuberculosis (M. tb) antigen PPD-coated beads for 7 days. […] Following imaging, supernatant samples were collected and quantified for extracellular cytokine release using an enzyme-linked immunosorbent assay.

[5] = test system: PBMCs from subjects with active pulmonary sarcoidosis; experiment: In vitro granuloma model of sarcoidosis: granuloma formation (MIPAR area fraction)
Description: as §1

[6] = higher staining concentration (20 μg/mL), rare to occasional cells
[7] = lower staining concentration (5 μg/mL)

Substance: Infliximab: a monoclonal antibody (mAb) targeting TNFα that is being used off-label to treat sarcoidosis
- increase in predicted forced vital capacity [1]: 2.5%

Substance: XTMAB-16: a chimeric (human/murine) IgG1 mAb directed against TNFα
- Tissues Showing Evidence of Staining: Smooth myocytes ([2]; adrenal, bladder, cerebellum, cerebral cortex, cervix, kidney, large intestine, liver, lymph node, lung, striated muscle, nerve, ovary, pancreas, placenta, prostate, parathyroid, skin, small intestine, spleen, stomach, testis, thymus, tonsil, uterus): Cytoplasm of vascular and/or intrinsic smooth
- Tissues Showing Evidence of Staining: mononuclear cells in human tonsil, small intestine with Crohn's disease, lung with sarcoidosis, lymph node with sarcoidosis ([2]; ancillary controls): Ancillary control tissues (+)
- majority of non-mononuclear cell binding ([2]; binding observed at only the higher concentration in most tissues): low affinity
- Tissues Showing Evidence of Staining: Epithelial cells ([2]; esophagus, Fallopian tube, kidney, lung (bronchioles), pancreas (acini), pituitary, salivary gland, skin (sweat glands), stomach (mucosa)): Cytoplasm only of epithelial cells stained
- mononuclear cell staining intensity in normal human tissues ([2]; higher concentration): weak to strong or weak to moderate
- staining of membrane and cytoplasm of mononuclear cells in human tonsil [2, 6]: weakly to strongly stained
- staining of mononuclear cells in small intestine with Crohn's disease, lung with sarcoidosis, lymph node with sarcoidosis [2, 6]: weakly to strongly stained
- Tissues Showing Evidence of Staining: Glomerular tuft cells ([2]; kidney): Cytoplasm of renal glomerular tuft cells
- mononuclear cell staining in normal human tissues ([2]; lower concentration, versus higher concentration): comparable, reduced, or no staining
- staining of mononuclear cells in human tonsil [2, 7]: weak to strong and rare staining
- staining of mononuclear cells in small intestine with Crohn's disease, lung with sarcoidosis, lymph node with sarcoidosis [2, 7]: weak to moderate and rare staining
- Tissues Showing Evidence of Staining: Endothelial cells ([2]; lymph node): Cytoplasm of endothelial cells in the lymph node.
- Tissues Showing Evidence of Staining: Myoepithelial cells ([2]; mammary gland): Membrane and cytoplasm of myoepithelial cells
- Tissues Showing Evidence of Staining: Sp2/0-Ag14 cells [2]: Negative control cryosections (−)
- Tissues Showing Evidence of Staining: Sp2/0-Ag14 cells ([2]; listed as XTMAB16): did not react specifically
- Tissues Showing Evidence of Staining: Mononuclear cells ([2]; normal human bladder, cervix, esophagus, large intestine, liver (Kupffer cells), lymph node, lung, pancreas, placenta (Hofbauer cells), parathyroid, salivary gland, skin, small intestine, spleen, stomach, thyroid, thymus, tonsil, uterus): stained the membrane and cytoplasm; also recorded: Membrane and cytoplasm of resident, migrating,
- Tissues Showing Evidence of Staining: T3-33 (TNFα-expressing) cells [2]: Positive control cells (+)
- Tissues Showing Evidence of Staining: T3-33 (TNFα-expressing) cells ([2]; listed as XTMAB16): weak to strong membrane and cytoplasmic staining
- arthritis scores compared to vehicle control ([3]; 20 mg/kg/dose on Days 1, 15, 29): statistically significant improvement
- arthritis scores compared to vehicle control ([3]; 40 mg/kg/dose on Days 1, 15, 29): statistically significant improvement
- arthritis scores, 20 versus 40 mg/kg/dose ([3]; t test: p>0.05): no significant differences
- granuloma cytokine release [4]: significant dose-response effect
- IC50 for decrease in granuloma area fraction [5]: 5.197 µg/mL
- granuloma formation (area fraction) ([5]; 30 minutes pre-treatment (XTMAB-16 1 to 40 μg/mL; prednisone 1 to 10 μM), 7 days following PPD): significantly attenuated; also recorded: significant dose-response effect
- IC50 for decrease in granuloma area fraction ([5]; MIPAR area fraction, all subject samples, 7 days after PPD-coated beads): 5.2 µg/mL
